Laboratory results: ChEMBL document CHEMBL1156784, “The permeation of amphoteric drugs through artificial membranes--an in combo absorption model based on paracellular and transmembrane permeability” (J Med Chem, 2010)

Experiments:
[1] = organism: Homo sapiens; experiment: Clearance in human assessed as liver blood flow; assay type: ADME, organism-based; conditions: in vivo
[2] = Permeability at pH 6.5 by PAMPA method
[3] = Oral bioavailability in human; conditions: in vivo
[4] = Octanol-water partition coefficient, log P of the compound

| SMILES | LBF [1] [%] | Papp [2] [×10⁻⁶ cm/s] | bioavailability [3] [%] | permeability [2] [×10⁻⁶ cm/s] | logP [4] |
| --- | --- | --- | --- | --- | --- |
| N[C@@H](Cc1ccc(N(CCCl)CCCl)cc1)C(=O)O | 30 | 84 |  |  |  |
| Nc1nc2c(ncn2COCCO)c(=O)[nH]1 [ACYCLOVIR] |  | 0.8 |  |  |  |
| CC1(C)S[C@@H]2[C@H](/N=C/N3CCCCCC3)C(=O)N2[C@H]1C(=O)O [AMDINOCILLIN] |  | 0.9 | 10 |  |  |
| CCOC(=O)[C@H](CCc1ccccc1)N[C@H]1CCc2ccccc2N(CC(=O)O)C1=O [BENAZEPRIL] |  | 17 | 37 |  |  |
| CC(C)(O/N=C(\C(=O)N[C@@H]1C(=O)N2C(C(=O)[O-])=C(C[n+]3ccccc3)CS[C@H]12)c1csc(N)n1)C(=O)O [CEFTAZIDIME] |  | 0.2 | 0 |  |  |
| COCc1c(C(C)C)nc(C(C)C)c(/C=C/[C@@H](O)C[C@@H](O)CC(=O)O)c1-c1ccc(F)cc1 [CERIVASTATIN] | 10 |  | 60 |  |  |
| NC(N)=Nc1nc(CSCCC(N)=NS(N)(=O)=O)cs1 [FAMOTIDINE] | 16 | 0.6 | 42 |  |  |
| Nc1nc(O)c2ncn(COC(CO)CO)c2n1 [GANCICLOVIR] |  |  | 7.3 |  |  |
| C[N+](C)(C)C[C@H](O)CC(=O)[O-] [LEVOCARNITINE] |  | 1.3 | 10 |  |  |
| NCCCC[C@H](N[C@@H](CCc1ccccc1)C(=O)O)C(=O)N1CCC[C@H]1C(=O)O [LISINOPRIL ANHYDROUS] |  |  | 25 |  |  |
| Cc1cnc(NC(=O)C2=C(O)c3ccccc3S(=O)(=O)N2C)s1 [MELOXICAM] |  |  | 89 |  |  |
| CN1C(C(=O)Nc2ccccn2)=C(O)c2ccccc2S1(=O)=O [PIROXICAM] |  | 20 |  |  |  |
| Nc1ccc(S(=O)(=O)Nc2ncccn2)cc1 [SULFADIAZINE] |  | 1.2 | 100 |  | -0.08 |
| CC(C)(C)NCC(O)c1cc(O)cc(O)c1 (stereo unspecified) [TERBUTALINE] |  | 1.4 | 14 |  |  |
| Cc1cccc(Nc2ccncc2S(=O)(=O)NC(=O)NC(C)C)c1 [TORSEMIDE] |  | 22 | 80 |  |  |

Results, then the molecule that gave them:

| LBF [1] [%] | Papp [2] [×10⁻⁶ cm/s] | bioavailability [3] [%] | permeability [2] [×10⁻⁶ cm/s] | logP [4] | SMILES |
| --- | --- | --- | --- | --- | --- |
|  | 3.7 | 60 |  |  | CN(C)[C@@H]1C(O)=C(C(N)=O)C(=O)[C@@]2(O)C(O)=C3C(=O)c4c(O)ccc(Cl)c4[C@@](C)(O)[C@H]3C[C@@H]12 [CHLORTETRACYCLINE] |
|  | 0.3 | 0 |  |  | COc1cccc2c1C(=O)c1c(O)c3c(c(O)c1C2=O)C[C@@](O)(C(C)=O)C[C@@H]3O[C@H]1C[C@H](N)[C@H](O)[C@H](C)O1 [DAUNORUBICIN] |
|  | 3.8 | 66 |  |  | CN(C)[C@@H]1C(O)=C(C(N)=O)C(=O)[C@@]2(O)C(O)=C3C(=O)c4c(O)ccc(Cl)c4[C@@H](O)[C@H]3C[C@@H]12 [DEMECLOCYCLINE] |
|  | 20 |  |  |  | C[C@H]1c2cccc(O)c2C(=O)C2=C(O)[C@]3(O)C(=O)C(C(N)=O)=C(O)[C@@H](N(C)C)[C@@H]3[C@@H](O)[C@@H]21.O [DOXYCYCLINE] |
|  | 7.7 | 89 |  |  | CCn1cc(C(=O)O)c(=O)c2cc(F)c(N3CCNCC3)nc21 [ENOXACIN] |
|  | 20 |  |  |  | COc1c(N2CCNC(C)C2)c(F)cc2c(=O)c(C(=O)O)cn(C3CC3)c12 (stereo unspecified) [GATIFLOXACIN] |
|  |  | 97 | 15 |  | CCn1cc(C(=O)O)c(=O)c2cc(F)c(N3CCNC(C)C3)c(F)c21 (stereo unspecified) [LOMEFLOXACIN] |
|  | 0.9 | 28 |  |  | Nc1ccc(O)c(C(=O)O)c1 [MESALAMINE] |
|  | 50 | 100 |  |  | CN(C)c1ccc(O)c2c1C[C@H]1C[C@H]3[C@H](N(C)C)C(O)=C(C(N)=O)C(=O)[C@@]3(O)C(O)=C1C2=O [MINOCYCLINE] |
|  |  | 90 |  |  | CC1COc2c(N3CCN(C)CC3)c(F)cc3c(=O)c(C(=O)O)cn1c23 (stereo unspecified) [OFLOXACIN] |
|  |  | 95 |  |  | CCn1cc(C(=O)O)c(=O)c2cc(F)c(N3CCN(C)CC3)cc21 [PEFLOXACIN] |
|  | 42 | 92 |  |  | C[C@@H]1CN(c2c(F)c(N)c3c(=O)c(C(=O)O)cn(C4CC4)c3c2F)C[C@H](C)N1 [SPARFLOXACIN] |
|  | 3.8 | 78 |  |  | CN(C)[C@@H]1C(O)=C(C(N)=O)C(=O)[C@@]2(O)C(O)=C3C(=O)c4c(O)cccc4[C@@](C)(O)[C@H]3C[C@@H]12 [TETRACYCLINE] |
|  | 57 | 88 |  |  | N[C@@H]1[C@H]2CN(c3nc4c(cc3F)c(=O)c(C(=O)O)cn4-c3ccc(F)cc3F)C[C@@H]12 [TROVAFLOXACIN] |
